{
  "source": "patent US8946243B2",
  "about": "“Compounds and methods for the treatment of viral infection” (The United States of America, as represented by the …, priority 2008, dated 2015)",
  "key": {"[1]": {"tested_on": "HIV-1 LAI.04", "assay": "Anti-HIV activity in MT4 cell cultures: p24 production", "format": "cell-based", "details": "for inhibition of HIV-1 (in words): MT-4 cell line, concentration of 5 μM", "method": "(§1) Human T-lymphocyte MT-4 or CEM cells were obtained from the American Type Culture Collection (Manassas, Va.) and cultivated in RPMI 1640 medium supplemented with 10% fetal bovine serum 2 mM L-glutamine and 0.075 M NaHCO3.\n(§2) HIV-1(IIIB) was provided by Dr. R. C. Gallo and Dr. M. Popovic (at that time at the NCI, National Institutes of Health, Bethesda). A closely related HIV-1 variant (LAI.04) was obtained from the NIH AIDS Reagent Program.\nBriefly, CEM cells (4.5×10^5 cells per ml) were suspended in fresh culture medium and infected with HIV-1 at 100 CCID50 (cell culture infective dose-50) per ml of cell suspension. Then 100 μl of the infected cell suspension were transferred to microplate wells, mixed with 100 μl of the appropriate dilutions of the test compounds, and further incubated at 37° C. After 4-5 days, giant cell formation was recorded microscopically in the CEM cell cultures. […] MT4 cells (1×10^4 cells per ml) were suspended in fresh culture medium and infected with 10 uL of HIV-1LAI.04 viral stock at 260 CCID50 (cell culture infective dose-50) per ml of cell suspension. Then infected cell suspensions were transferred to microplate wells, mixed with 1 mL of the appropriate dilutions of the test compounds, and further incubated at 37° C. […]"}, "[2]": {"molecular_target": "HIV-1 RT (Human immunodeficiency virus type 1 group M subtype B, UniProt P03366)", "assay": "Inhibition of HIV-1 RT", "format": "biochemical"}, "[3]": {"assay": "Cytostatic activity in CEM cell cultures", "format": "cell-based", "details": "human, CEM T-lymphocyte cells", "method": "as §1"}, "[4]": {"tested_on": "HIV-2(ROD)", "assay": "Anti-HIV activity in CEM cell cultures: prevention of giant cell (syncytium) formation, HIV-2(ROD)", "format": "cell-based", "details": "Human immunodeficiency virus 2, CCRF-CEM, read-out: EC50 HIV-2(ROD)"}, "[5]": {"tested_on": "HIV-1 X4 LAI.04", "assay": "HIV-1 replication in ex vivo human tonsillar tissue culture: p24gag in culture medium", "format": "cell-based", "details": "for EC50 / EC90: Human immunodeficiency virus 1; for EC50 / EC90 / EC75: ex vivo human tonsillar tissue, X4 LAI.04, p24gag", "method": "Tonsillar tissues from routine surgery were obtained from the Children's National Medical Center, Washington D.C. Tissues were dissected into 2-mm^3 blocks and placed onto collagen sponge gels at the air-liquid interface. Tissue blocks were cultured in RPMI 1640 medium containing 15% heat-inactivated fetal calf serum, nonessential amino acids (1 mM), sodium pyruvate (1 mM), amphotericin B (2.5 μg/mL) and gentamicin (50 μg/mL). The culture medium was changed every 3 days and prodrugs were replenished. Blocks of human lymphoid tonsillar tissues were inoculated ex vivo with X4LAI.04 and treated with increasing concentration of each prodrug (0,1; 0.5; 1; 5 and 10 μM). HIV-1 replication was monitored by measuring p24gag accumulated in culture media over 3 day periods. For each donor, HIV-1 replication in 9 treated blocks was compared with that in 9 untreated blocks from the same donor."}, "[6]": {"tested_on": "HIV-1(IIIB)", "assay": "Anti-HIV activity in CEM cell cultures: prevention of giant cell (syncytium) formation, HIV-1(IIIB)", "format": "cell-based", "details": "concentration preventing syncytium formation by 50%, 4-5 days", "method": "as §1, §2\nBriefly, CEM cells (4.5×10^5 cells per ml) were suspended in fresh culture medium and infected with HIV-1 at 100 CCID50 (cell culture infective dose-50) per ml of cell suspension. Then 100 μl of the infected cell suspension were transferred to microplate wells, mixed with 100 μl of the appropriate dilutions of the test compounds, and further incubated at 37° C. After 4-5 days, giant cell formation was recorded microscopically in the CEM cell cultures. […] MT4 cells (1×10^4 cells per ml) were suspended in fresh culture medium and infected with 10 uL of HIV-1LAI.04 viral stock at 260 CCID50 (cell culture infective dose-50) per ml of cell suspension. Then infected cell suspensions were transferred to microplate wells, mixed with 1 mL of the appropriate dilutions of the test compounds, and further incubated at 37° C. After 7 days, p24 production was measured in the MT4 cell cultures supernatant."}, "[7]": {"details": "MT4 cell cultures, HIV-1 LAI.04, 50% suppression of p24 production, read-out: EC50"}, "[8]": {"details": "CEM cell cultures, 50% effective concentration"}, "[9]": {"details": "Human immunodeficiency virus 1, IIIB, CCRF-CEM, read-out: EC50 HIV-1(IIIB), CEM cell cultures"}, "[10]": {"details": "Human immunodeficiency virus 1, MT4"}},
  "note": "Read-outs that look alike come from different tables or passages of the source.",
  "data": [
    {"molecule": "Nc1nc2c(ncn2COCCOP(=O)(O)O)c(=O)[nH]1", "note": "[ACV monophosphate, reference compound]", "values": [
      {"measurement": "EC50", "setting": "[1]; [7]", "value": 100, "unit": "µM"},
      {"measurement": "inhibition of HIV-1 (in words)", "setting": "[1]", "value": "inefficient"}
    ]},
    {"molecule": "Nc1nc2c(ncn2COCCOP(=O)(O)OP(=O)(O)OP(=O)(O)O)c(=O)[nH]1", "note": "[ACV triphosphate, reference compound]", "values": [
      {"measurement": "inhibition of HIV-1 RT (in words)", "setting": "[2]", "value": "potent inhibitor"},
      {"measurement": "EC50", "setting": "[1]; [7]", "value": 50, "unit": "µM"}
    ]},
    {"molecule": "Nc1nc2c(ncn2COCCO)c(=O)[nH]1", "note": "[ACV, Acyclovir, reference compound]", "values": [
      {"measurement": "CC50", "setting": "[3]", "value": "> 250", "unit": "µM"},
      {"measurement": "EC50", "setting": "[4]; [8]", "value": "> 250", "unit": "µM"},
      {"measurement": "inhibition of HIV-1 (in words)", "setting": "[1]", "value": "inefficient"},
      {"measurement": "effect on replication of HIV-1 (in words)", "setting": "[1]; MT-4 cells, at low concentrations", "value": "does not affect HIV-1 replication at all"}
    ]},
    {"molecule": "COC(=O)[C@H](C)NP(=O)(OCCOCn1cnc2c(=O)[nH]c(N)nc21)Oc1ccccc1", "note": "(stereo partly drawn) [Cf 1811, acyclovir-[1-phenyl-(methoxy-L-alaninyl)]phosphate]", "values": [
      {"measurement": "EC50", "setting": "[5]", "value": "< 100", "unit": "nM"},
      {"measurement": "EC90", "setting": "[5]", "value": 500, "unit": "nM"},
      {"measurement": "EC75", "setting": "[5]", "value": 0.1, "unit": "µM"},
      {"measurement": "CC50", "setting": "[3]", "value": 67, "unit": "µM"},
      {"measurement": "EC50", "setting": "[6]; [9]", "value": 16, "unit": "µM"},
      {"measurement": "EC50", "setting": "[4]", "value": 26, "unit": "µM"},
      {"measurement": "EC50", "setting": "[1]; [10]", "value": 15, "unit": "µM"}
    ]},
    {"molecule": "C[C@H](NP(=O)(OCCOCn1cnc2c(=O)[nH]c(N)nc21)Oc1cccc2ccccc12)C(=O)OCc1ccccc1", "note": "(stereo partly drawn) [Cf 2574, acyclovir-[1-naphthyl(benzoxy-L-alaninyl)]phosphate]", "values": [
      {"measurement": "EC50", "setting": "[5]", "value": "< 100", "unit": "nM"},
      {"measurement": "EC90", "setting": "[5]", "value": 900, "unit": "nM"},
      {"measurement": "EC75", "setting": "[5]", "value": 0.62, "unit": "µM"},
      {"measurement": "CC50", "setting": "[3]", "value": 17, "unit": "µM"},
      {"measurement": "EC50", "setting": "[6]; [9]", "value": 17.5, "unit": "µM"},
      {"measurement": "EC50", "setting": "[4]", "value": 7.3, "unit": "µM"},
      {"measurement": "EC50", "setting": "[1]; [10]", "value": 0.8, "unit": "µM"}
    ]},
    {"molecule": "CCCOC(=O)[C@H](C)NP(=O)(OCCOCn1cnc2c(=O)[nH]c(N)nc21)Oc1cccc2ccccc12", "note": "(stereo partly drawn) [Cf 2629, acyclovir-[1-naphthyl(n-propoxy-L-alaninyl)]phosphate]", "values": [
      {"measurement": "EC50", "setting": "[5]", "value": "< 100", "unit": "nM"},
      {"measurement": "EC90", "setting": "[5]", "value": 1500, "unit": "nM"},
      {"measurement": "EC75", "setting": "[5]", "value": 0.4, "unit": "µM"},
      {"measurement": "CC50", "setting": "[3]", "value": 22, "unit": "µM"},
      {"measurement": "EC50", "setting": "[6]; [9]", "value": 3.2, "unit": "µM"},
      {"measurement": "EC50", "setting": "[6]; read-out: EC50 HIV-1(IIIB), CEM cell cultures", "value": 3.4, "unit": "µM"},
      {"measurement": "EC50", "setting": "[4]", "value": 7.4, "unit": "µM"},
      {"measurement": "EC50", "setting": "[1]; [10]", "value": 10, "unit": "µM"}
    ]},
    {"molecule": "C[C@H](NP(=O)(OCCOCn1cnc2c(=O)[nH]c(N)nc21)Oc1ccccc1)C(=O)OCc1ccccc1", "note": "(stereo partly drawn) [Cf 2648, acyclovir-[1-phenyl-(benzoxy-L-alaninyl)]phosphate]", "values": [
      {"measurement": "EC50", "setting": "[5]", "value": "< 100", "unit": "nM"},
      {"measurement": "EC90", "setting": "[5]", "value": 550, "unit": "nM"},
      {"measurement": "EC75", "setting": "[5]", "value": "<0.1", "unit": "µM"},
      {"measurement": "CC50", "setting": "[3]", "value": 33, "unit": "µM"},
      {"measurement": "EC50", "setting": "[6]; [9]", "value": 3.2, "unit": "µM"},
      {"measurement": "EC50", "setting": "[4]", "value": 8.8, "unit": "µM"},
      {"measurement": "EC50", "setting": "[1]; [10]", "value": 8, "unit": "µM"}
    ]},
    {"molecule": "COC(=O)[C@H](C)NP(=O)(OCCOCn1cnc2c(=O)[nH]c(N)nc21)Oc1cccc2ccccc12", "note": "(stereo partly drawn) [Cf 2649, acyclovir-[1-naphthyl(methoxy-L-alaninyl)]phosphate]", "values": [
      {"measurement": "EC50", "setting": "[5]", "value": "< 100", "unit": "nM"},
      {"measurement": "EC90", "setting": "[5]", "value": 100, "unit": "nM"},
      {"measurement": "EC75", "setting": "[5]", "value": "<0.1", "unit": "µM"},
      {"measurement": "suppression of HIV-1 replication, time course (FIG. 1, in words)", "setting": "[5]; human tonsillar tissue, 27 blocks, LAI.04, drug replenished every three days, p24 ELISA", "value": "efficient suppression of HIV replication"},
      {"measurement": "CC50", "setting": "[3]", "value": 57, "unit": "µM"},
      {"measurement": "EC50", "setting": "[6]; [9]", "value": 9.7, "unit": "µM"},
      {"measurement": "EC50", "setting": "[4]", "value": 9.3, "unit": "µM"},
      {"measurement": "EC50", "setting": "[1]; [10]", "value": 3, "unit": "µM"},
      {"measurement": "inhibition at 5 µM", "setting": "[1]; Human immunodeficiency virus 1, MT4, read-out: inhibition of replication of HIV-1", "value": 99, "unit": "%"},
      {"measurement": "dose-dependency of HIV suppression (FIG. 2, in words)", "setting": "[1]; MT4 cells, LAI.04, day 3 post-infection, p24 ELISA", "value": "suppression of HIV replication by the drug in dose-dependent manner"}
    ]},
    {"molecule": "Nc1nc2c(ncn2COCCOP(=O)(N[C@@H](Cc2ccccc2)C(=O)OCc2ccccc2)Oc2ccccc2)c(=O)[nH]1", "note": "(stereo partly drawn) [Cf 2650, acyclovir-[1-phenyl-(benzoxy-L-phenylalaninyl)]phosphate]", "values": [
      {"measurement": "EC50", "setting": "[5]", "value": "< 100", "unit": "nM"},
      {"measurement": "EC90", "setting": "[5]", "value": 3000, "unit": "nM"},
      {"measurement": "EC75", "setting": "[5]", "value": 1.5, "unit": "µM"},
      {"measurement": "CC50", "setting": "[3]", "value": 42, "unit": "µM"},
      {"measurement": "EC50", "setting": "[6]; [9]", "value": 24, "unit": "µM"},
      {"measurement": "EC50", "setting": "[4]", "value": 21, "unit": "µM"},
      {"measurement": "EC50", "setting": "[1]; [10]", "value": 16, "unit": "µM"}
    ]},
    {"molecule": "Nc1nc(O)c2ncn(COC(CO)CO)c2n1", "note": "[GCV, Ganciclovir, reference compound]", "values": [
      {"measurement": "CC50", "setting": "[3]", "value": "> 250", "unit": "µM"},
      {"measurement": "EC50", "setting": "[6]; Human immunodeficiency virus 1, IIIB, CCRF-CEM, CEM cell cultures, read-out: EC50 HIV-1(IIIB)", "value": "> 250", "unit": "µM"},
      {"measurement": "EC50", "setting": "[4]; [8]", "value": "> 250", "unit": "µM"}
    ]}
  ]
}
